Measurements: article PMC9750858, “Rapid biosensor development using plant hormone receptors as reprogrammable scaffolds” (Nature Biotechnology, 2022)
Several values for one entry are separate records, joined by “and”; a condition that tells them apart may be missing. Equal entries are not always repeated.

Legend:
[1] = tested on: PYR1-derived cannabinoid receptors (PYR1 mutants) binding HAB1; conditions: for cannabinoid concentration to which CB-S1 library clones respond (as low as): clones from shuffled library CB-S1; for selectivity of Y2H response of the sensor evolved for the ligand: PYR1^CBDA or PYR1^CP 47,497, all ligands tested at 25 µM
PYR1^WIN-M = target: T1, PYR1^WIN-M (Arabidopsis thaliana, UniProt O49686, A160I/D26G/E4G/F159A/H60P/K59Q/N90S/Y23H); test: ELISA-like plate assay, immobilized PYR1^WIN-M, biotinylated ΔN-HAB1^T+; format: binding; conditions: replicates
T1 construct: made in house
T1 sequence (O49686 with tags, fused parts or gaps E4G/Y23H/D26G/K59Q/H60P/N90S/F159A/A160I): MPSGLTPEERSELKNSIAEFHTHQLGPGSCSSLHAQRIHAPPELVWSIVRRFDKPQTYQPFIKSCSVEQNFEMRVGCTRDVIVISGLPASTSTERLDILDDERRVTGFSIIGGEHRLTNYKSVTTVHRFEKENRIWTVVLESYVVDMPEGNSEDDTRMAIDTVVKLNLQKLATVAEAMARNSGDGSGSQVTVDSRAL

PYR1^PIRI = target: T2, PYR1^PIRI (Arabidopsis thaliana, UniProt O49686, A160T/E130G/F159T/K59R/N119S/S122Q/S92M/V174A); test: Split NanoLuc luciferase complementation in yeast, NLuc^N-PYR1^PIRI/NLuc^C-HAB1; format: cell-based; conditions: Figure 4f(bottom), replicates
T2 construct: >PYR1-PIRI; expressed in transfected cells; host or cells: Saccharomyces cerevisiae BY4742

PYR1^DIAZI = PYR1^DIAZI (Arabidopsis thaliana, UniProt O49686, A160V/E8G/F108Y/F159G/L87M/M158V/V81Y); test: Split NanoLuc luciferase complementation in yeast, NLuc^N-PYR1^DIAZI/NLuc^C-HAB1; format: cell-based; parameters: >PYR1-DIAZI; expressed in transfected cells; host or cells: Saccharomyces cerevisiae BY4742; conditions: Figure 4f(top), 3 replicates
PYR1^DIAZI, sequence (Q9CAJ0 179-511): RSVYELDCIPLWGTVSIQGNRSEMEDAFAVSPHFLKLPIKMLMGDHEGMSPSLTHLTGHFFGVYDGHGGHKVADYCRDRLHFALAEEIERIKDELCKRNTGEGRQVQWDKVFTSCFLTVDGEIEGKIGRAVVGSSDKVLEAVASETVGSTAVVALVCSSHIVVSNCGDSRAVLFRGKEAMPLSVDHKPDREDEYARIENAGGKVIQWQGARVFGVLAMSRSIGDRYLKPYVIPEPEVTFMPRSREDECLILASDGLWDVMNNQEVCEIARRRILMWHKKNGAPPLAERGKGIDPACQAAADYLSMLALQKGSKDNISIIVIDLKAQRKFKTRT
PYR1^DIAZI, sequence (O49686 other isoform, or with tags, fused parts or gaps E8G/V81Y/L87M/F108Y/M158V/F159G/A160V): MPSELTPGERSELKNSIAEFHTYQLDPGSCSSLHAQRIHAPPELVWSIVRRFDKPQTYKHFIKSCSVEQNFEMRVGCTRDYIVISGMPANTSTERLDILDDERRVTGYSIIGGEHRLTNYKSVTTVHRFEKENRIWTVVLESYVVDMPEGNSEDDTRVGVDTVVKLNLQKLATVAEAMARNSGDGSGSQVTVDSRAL

T2 sequence (O49686 other isoform, or with tags, fused parts or gaps K59R/S92M/N119S/S122Q/E130G/F159T/A160T/V174A): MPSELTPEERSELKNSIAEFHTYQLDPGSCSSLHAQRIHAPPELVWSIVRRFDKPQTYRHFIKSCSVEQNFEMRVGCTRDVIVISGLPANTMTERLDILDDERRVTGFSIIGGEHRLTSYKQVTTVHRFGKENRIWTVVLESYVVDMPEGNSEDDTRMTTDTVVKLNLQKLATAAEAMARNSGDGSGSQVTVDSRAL
T2 sequence (Q9CAJ0 179-511, further chain): as the sequence (Q9CAJ0 179-511) above

## CCCn1c(C)c(C(=O)c2cccc3ccccc23)c2ccccc21 [JWH-015]
[1]
  cannabinoid concentration to which CB-S1 library clones respond (as low as): 100 nM

## CCCCCCC(C)(C)c1ccc(C2CCCC(O)C2)c(O)c1 (centres unmarked) [CP 47,497, cannabicyclohexanol]
PYR1^WIN-M; cannabinoid at 2 nM, 497
  ELISA signal generation, receptor cross-reactivity (source data): 0.117 and 0.142 and 0.12
PYR1^WIN-M; cannabinoid at 2 μM, 497
  ELISA signal generation, receptor cross-reactivity (source data): 0.105 (2×) and 0.078
[1]
  selectivity of Y2H response of the sensor evolved for the ligand: selectively responds

## CCCCn1c(C)c(C(=O)c2cccc3ccccc23)c2ccccc21 [JWH-016]
[1]
  cannabinoid concentration to which CB-S1 library clones respond (as low as): 50 nM

## CCCCCn1cc(C(=O)c2cccc3ccccc23)c2ccccc21 [JWH-018]
[1]
  cannabinoid concentration to which CB-S1 library clones respond (as low as): 500 nM

## CCOP(=S)(OCC)Oc1ccc2c(C)c(Cl)c(=O)oc2c1 [Coumaphos]
PYR1^PIRI; [Agonist] 1e-5 nM
  Sensor signal (Figure 4f bottom), replicate values: 11.6429 and 18.6581 and 9.869
PYR1^PIRI; [Agonist] 0.5 nM
  Sensor signal (Figure 4f bottom), replicate values: 10.5853 and 39.7892 and 9.475
PYR1^PIRI; [Agonist] 1 nM
  Sensor signal (Figure 4f bottom), replicate values: 12.0486 and 19.9282 and 8.797
PYR1^PIRI; [Agonist] 10 nM
  Sensor signal (Figure 4f bottom), replicate values: 7.164 and 12.4287 and 9.583
PYR1^PIRI; [Agonist] 100 nM
  Sensor signal (Figure 4f bottom), replicate values: 8.8955 and 12.6369 and 17.1023
PYR1^PIRI; [Agonist] 1000 nM
  Sensor signal (Figure 4f bottom), replicate values: 9.4868 and 11.2169 and 22.673
PYR1^PIRI; [Agonist] 10000 nM
  Sensor signal (Figure 4f bottom), replicate values: 12.3815 and 19.3959 and 83.5281
PYR1^PIRI; [Agonist] 100000 nM
  Sensor signal (Figure 4f bottom), replicate values: 9.584 and 13.286 and 71.6379
PYR1^DIAZI; [Agonist] 1e-5 nM
  Sensor signal (Figure 4f top), replicate values: 16.388 and 9.752 and 14.788
PYR1^DIAZI; [Agonist] 0.5 nM
  Sensor signal (Figure 4f top), replicate values: 30.8829 and 12.1724 and 17.852
PYR1^DIAZI; [Agonist] 1 nM
  Sensor signal (Figure 4f top), replicate values: 36.8131 and 33.8683 and 15.2635
PYR1^DIAZI; [Agonist] 10 nM
  Sensor signal (Figure 4f top), replicate values: 15.4966 and 64.9896 and 15.1391
PYR1^DIAZI; [Agonist] 100 nM
  Sensor signal (Figure 4f top), replicate values: 12.996 and 65.6413 and 15.942
PYR1^DIAZI; [Agonist] 1000 nM
  Sensor signal (Figure 4f top), replicate values: 21.5139 and 73.8437 and 25.5745
PYR1^DIAZI; [Agonist] 10000 nM
  Sensor signal (Figure 4f top), replicate values: 81.7848 and 47.8146 and 79.9027
PYR1^DIAZI; [Agonist] 100000 nM
  Sensor signal (Figure 4f top), replicate values: 105.044 and 22.805 and 29.2791

## C=C(C)[C@@H]1CCC(C)=C[C@H]1c1c(O)cc(CCCCC)c(C(=O)O)c1O [CBDA, cannabidiolic acid]
[1]
  selectivity of Y2H response of the sensor evolved for the ligand: selectively responds

## CCCn1cc(C(=O)c2cccc3ccccc23)c2ccccc21 [JWH-072]
PYR1^WIN-M; cannabinoid at 2 nM
  ELISA signal generation, receptor cross-reactivity (source data): 0.289 and 0.097 and 0.074
PYR1^WIN-M; cannabinoid at 2 μM
  ELISA signal generation, receptor cross-reactivity (source data): 0.219 and 0.29 and 0.268
[1]
  cannabinoid concentration to which CB-S1 library clones respond (as low as): 50 nM
